Legend:
[1] = tested on: HCV replication in Huh7_HBI10A cells containing a HCV-replicon; assay: RHEPLISA assay, cell-based assay for measuring HCV replication (NS3 ELISA); set-up: species or system hepatitis C virus; conditions: at 40 μM
Method: A cell-based assay for measuring the HCV replication (RHEPLISA) was developed in a 96-well microplate format. The assay utilizes Huh-7 cellular clone (Huh7_HBI10A) containing a HCV-replicon and is based on the detection of the viral NS3 protein by ELISA. About 5000 Huh7_HBI10A cells (or Huh-7 cells as negative control), resuspended in 100 μL of complete DMEM were seeded into each well of a 96 well microtiter plate (Falcon sterile by Becton Dickinson). After 4 hours, 50 μL of an appropriate dissolution medium (e.g., DMEM) containing the compounds to test or DMSO (3%) were added, and incubated (37° C., 5% CO2) for 4 days. The medium was removed by inversion and the cells were fixed by addition of 200 μ/well of ice-cold isopropanol 100%. […]
When secondary antibody AP-conjugated was used, 100 μL of AP substrate (SIGMA 104 Phosphatase substrate tablets; i.e., one tablet in 5 ml of AP buffer: diethanolamine solution 10%, pH 9.6-9.8.) were added to each well, and the plate was read in a conventional ELISA plate reader set at 405-620 nm.
When peroxidase-conjugated secondary was used, 100 μL of TMB substrate (SIGMA) were added to each well, and the plate was incubated for 20′ in the dark. 50 μL of 0.5M H2SO4 were then added, and the plate was read in a conventional ELISA plate reader set at 450-620 nm.

Huh7_HBI10A cells = assay: Cytotoxicity assay (SRB); format: cell-based, human; conditions: at 40 μM
Method: About 5000 Huh7_HBI10A cells, resuspended in 100 μL of complete DMEM were seeded into each well of a 96 well microtiter plate (Falcon sterile by Becton Dickinson) and incubated (37° C., 5% CO2) for 24 hours. The medium was removed and the cells were fixed by incubation with 50 μL of 50% TCA for 1 hour at 4° C., 200 μL of ice-cold isopropanol 100% for 20 minutes at 4° C., or 100 μL of 10% paraformaldehyde for 20 minutes at room temperature. The plate was washed with water when either TCA or paraformaldehyde was used to fix the cells and with PBS 1× when isopropanol was used to fix the cells. All washings were run 3 times. After drying the plate, 200 μL of SRB 1× solution (prepared fresh from a SRB solution 10×: 4% sulforhodamine B (Sigma) in 10% acetic acid) was added to each well and incubated for 30 minutes at room temperature. The SRB 1× solution was removed by inversion and the plate was washed in 1% acetic acid 3 times. To each well was added 200 μL of 10 mM Tris pH 10.5, the plate was shaken till the color of the solution in the wells was uniform, and the plate was read in a conventional ELISA plate reader set at 570 nm.

## NC(=S)NN=Cc1ccccc1 [benzaldehyde thiosemicarbazone]
[1]
  anti-HCV activity in the RHEPLISA assay: no anti-HCV activity
Huh7_HBI10A cells
  cytotoxic inhibition: no cytotoxic inhibition

From patent publication US20030176503A1, “Treating hepatitis C viral infections with thiosemicarbazone compounds” (priority 2001, published 2003)
